Blank lines part the entries; values can stand above or below the molecule they belong to.
Biological target: T1, P2Y1 receptor (Homo sapiens, UniProt P47900)
T1 construct: expressed in transfected cells
Experiment: P2Y1 IP1 accumulation HTRF assay, antagonism of agonist MRS2365 in stably transfected cells
Assay type: cell-based
Conditions: racemic; 5nM MRS2365; values rounded to nearest whole number; N >= 4
Method: IC50 values were determined using a cell based assay in stably transfected cells overexpressing the P2Y1 receptor. The assay system is a […] (HTRF) assay measuring accumulation of the intracellular messenger inositol monophosphate (IP1), generated intracellularly following activation of P2Y1. Activity of test compounds was generated by measuring antagonism of the increase in IP1 generated by addition of a selective P2Y1 agonist, MRS2365.
P2Y1 overexpressing cells were maintained in T175 flasks. The day before the assay, these cells were split and 20µl cell suspension transferred to each well of white 384-well assay plates at a cell density of 0.5x10^6 cells/mL. Plates were pulse centrifuged, then incubated overnight at 37°C / 5% CO2 prior to assay.
On day of assay, medium was removed from cells and replaced with stimulation buffer. Compounds were prepared in 100% DMSO for addition to cells using the Tecan D300e digital dispenser; compounds were prepared in cassette heads and added directly to wells in the required concentration range, to give a 10-point concentration response curve from 10µM with semi-log dilutions and a final DMSO concentration of 0.1%. Positive control antagonist curves with standard compounds were included on each plate. Plates were incubated with antagonists for 1 hour prior to addition of 5nM of the agonist MRS2365, dispensed using a Bravo liquid handler. Following agonist addition, plates were incubated for 60 minutes prior to assay. Both incubations were carried out at 37°C / 5% CO2.
For the assay, IP1 accumulation was quantified using the IPOne kit according to manufacturer's instructions. In short, a standard curve was prepared for IP 1 quantification, and cells lysed using kit lysis buffer. Assay reagents were added to the lysates, and incubated for 1 hour at room temperature without spinning or shaking. Plates were analysed on a BMG Pherastar plate reader, and IP1 signal generated in cells interpolated from the standard curve.
For all reported results, N is greater than or equal to 4. An individual N refers to one assay run with a single weighing of compound. A minimum of two assay runs were performed for each of two independent weighings of compound. Results (racemic)

T1 sequence (P47900 whole entry): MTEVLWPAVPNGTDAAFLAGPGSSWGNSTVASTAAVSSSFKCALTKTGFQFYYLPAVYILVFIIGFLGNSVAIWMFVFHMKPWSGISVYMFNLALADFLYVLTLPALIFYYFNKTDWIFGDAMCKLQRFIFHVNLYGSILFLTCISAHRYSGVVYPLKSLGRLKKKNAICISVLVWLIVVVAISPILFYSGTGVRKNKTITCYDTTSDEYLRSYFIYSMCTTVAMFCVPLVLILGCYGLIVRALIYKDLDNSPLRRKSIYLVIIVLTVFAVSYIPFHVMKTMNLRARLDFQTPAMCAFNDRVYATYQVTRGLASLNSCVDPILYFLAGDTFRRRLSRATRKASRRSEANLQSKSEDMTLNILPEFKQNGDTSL

SMILES: Cc1ccc(NC(=O)Nc2ccc(C(C)C)cc2)c(Oc2ccccc2C2(C(F)(F)F)CCO2)n1 (racemic) [S1]
IC50: 20 nM

SMILES: Cc1ccc(NC(=O)Nc2ccc(OC(F)(F)F)cc2F)c(Oc2ccccc2C2(C(F)(F)F)CCO2)n1 (racemic) [S2, 1-(2-fluoro-4-(trifluoromethoxy)phenyl)-3-(6-methyl-2-(2-(2-(trifluoromethyl)oxetan-2-yl)phenoxy)pyridin-3-yl)urea]
IC50: 33 nM

SMILES: Cc1ccc(NC(=O)Nc2ccc(OC(F)(F)F)cc2F)c(Oc2ccccc2C2(C(F)(F)F)CCN2C)n1 (racemic) [S3]
IC50: 40 nM

SMILES: Cc1ccc(NC(=O)Nc2ccc(Cl)cc2F)c(Oc2ccccc2C2(C(F)(F)F)CCO2)n1 (racemic) [S4, 1-(4-chloro-2-fluorophenyl)-3-(6-methyl-2-(2-(2-(trifluoromethyl)oxetan-2-yl)phenoxy)pyridin-3-yl)urea]
IC50: 43 nM

SMILES: CCN1CCC1(c1ccccc1Oc1ncccc1NC(=O)Nc1ccc(OC(F)(F)F)cc1)C(F)(F)F (racemic) [S5]
IC50: 43 nM

SMILES: Cc1ccc(NC(=O)Nc2ccc(OC(F)(F)F)cc2)c(Oc2ccccc2C2(C(F)(F)F)CCN2C)n1 (racemic) [S6]
IC50: 50 nM

SMILES: Cc1ccc(NC(=O)Nc2ccc(OC(F)(F)F)cc2)c(Oc2ccccc2C2(C(F)(F)F)CCO2)n1 (racemic) [S7, 1-(6-methyl-2-(2-(2-(trifluoromethyl)oxetan-2-yl)phenoxy)pyridin-3-yl)-3-(4-(trifluoromethoxy)phenyl)urea]
IC50: 55 nM

SMILES: O=C(Nc1ccc(OC(F)(F)F)cc1)Nc1cccnc1Oc1ccccc1C1(C(F)(F)F)CCN1Cc1ccccc1 (racemic) [S8]
IC50: 64 nM

SMILES: O=C(Nc1ccc(OC(F)(F)F)cc1F)Nc1cccnc1Oc1ccccc1C1(C(F)(F)F)CCO1 (racemic) [S9, 1-(2-fluoro-4-(trifluoromethoxy)phenyl)-3-(2-(2-(2-(trifluoromethyl)oxetan-2-yl)phenoxy)pyridin-3-yl)urea]
IC50: 66 nM

SMILES: CN1CCC1(c1ccccc1Oc1ncccc1NC(=O)Nc1ccc(Cl)cc1F)C(F)(F)F (racemic) [S10]
IC50: 78 nM

SMILES: O=C(Nc1ccc(OC(F)(F)F)cc1)Nc1cccnc1Oc1ccccc1C1(C(F)(F)F)CCO1 (racemic) [S11, 1-(4-(trifluoromethoxy)phenyl)-3-(2-(2-(2-(trifluoromethyl)oxetan-2-yl)phenoxy)pyridin-3-yl)urea]
IC50: 84 nM

SMILES: O=C(Nc1ccc(OC(F)(F)F)cc1F)Nc1cccnc1Oc1cc(F)ccc1C1(C(F)(F)F)CCO1 (racemic) [S12]
IC50: 87 nM

SMILES: O=C(Nc1ccc(S(F)(F)(F)(F)F)cc1F)Nc1cccnc1Oc1ccccc1C1(C(F)(F)F)CCO1 (racemic) [S13, 1-(2-fluoro-4-(pentafluoro-λ^6-sulfaneyl)phenyl)-3-(2-(2-(2-(trifluoromethyl)oxetan-2-yl)phenoxy)pyridin-3-yl)urea]
IC50: 93 nM

SMILES: O=C(Nc1ccc(OC(F)(F)F)cc1F)Nc1ccc(Cl)nc1Oc1ccccc1C1(C(F)(F)F)CCO1 (racemic) [S14, 1-(6-chloro-2-(2-(2-(trifluoromethyl)oxetan-2-yl)phenoxy)pyridin-3-yl)-3-(2-fluoro-4-(trifluoromethoxy)phenyl)urea]
IC50: 94 nM

SMILES: Cc1ccc(NC(=O)Nc2ccc(OC3CC(F)(F)C3)cc2)c(Oc2ccccc2C2(C(F)(F)F)CCO2)n1 (racemic) [S15, 1-(4-(3,3-difluorocyclobutoxy)phenyl)-3-(6-methyl-2-(2-(2-(trifluoromethyl)oxetan-2-yl)phenoxy)pyridin-3-yl)urea]
IC50: 105 nM

SMILES: Cc1ccc(NC(=O)Nc2ccc(Cl)cc2F)c(Oc2ccc(F)cc2C2(C(F)(F)F)CCO2)n1 (racemic) [S16, 1-(4-chloro-2-fluorophenyl)-3-(2-(4-fluoro-2-(2-(trifluoromethyl)oxetan-2-yl)phenoxy)-6-methylpyridin-3-yl)urea]
IC50: 108 nM

SMILES: Cc1ccc(NC(=O)Nc2ccc(Cl)c(F)c2)c(Oc2ccccc2C2(C(F)(F)F)CCO2)n1 (racemic) [S17, 1-(4-chloro-3-fluorophenyl)-3-(6-methyl-2-(2-(2-(trifluoromethyl)oxetan-2-yl)phenoxy)pyridin-3-yl)urea]
IC50: 114 nM

SMILES: Cc1ccc(NC(=O)Nc2ccc(Cl)cc2)c(Oc2ccccc2C2(C(F)(F)F)CCO2)n1 (racemic) [S18, 1-(4-chlorophenyl)-3-(6-methyl-2-(2-(2-(trifluoromethyl)oxetan-2-yl)phenoxy)pyridin-3-yl)urea]
IC50: 118 nM

Second part, the molecule after the results:

IC50: 120 nM
SMILES: Cc1ccc(NC(=O)Nc2ccc(OC(F)(F)F)cc2)c(Oc2ccc(F)cc2C2(C(F)(F)F)CCO2)n1 (racemic) [S19, 1-(2-(4-fluoro-2-(2-(trifluoromethyl)oxetan-2-yl)phenoxy)-6-methylpyridin-3-yl)-3-(4-(trifluoromethoxy)phenyl)urea]

IC50: 125 nM
SMILES: O=C(Nc1ccc(OC(F)(F)F)cc1)Nc1ccc(Cl)nc1Oc1ccccc1C1(C(F)(F)F)CCO1 (racemic) [S20, 1-(6-chloro-2-(2-(2-(trifluoromethyl)oxetan-2-yl)phenoxy)pyridin-3-yl)-3-(4-(trifluoromethoxy)phenyl)urea]

IC50: 140 nM
SMILES: O=C(Nc1ccc(OC(F)(F)F)cc1F)Nc1cccnc1Oc1ccc(F)cc1C1(C(F)(F)F)CCO1 (racemic) [S21, 1-(2-(4-fluoro-2-(2-(trifluoromethyl)oxetan-2-yl)phenoxy)pyridin-3-yl)-3-(2-fluoro-4-(trifluoromethoxy)phenyl)urea]

IC50: 141 nM
SMILES: O=C(Nc1ccc(Cl)cc1F)Nc1ccc(Cl)nc1Oc1ccccc1C1(C(F)(F)F)CCO1 (racemic) [S22, 1-(6-chloro-2-(2-(2-(trifluoromethyl)oxetan-2-yl)phenoxy)pyridin-3-yl)-3-(4-chloro-2-fluorophenyl)urea]

IC50: 145 nM
SMILES: O=C(Nc1ccc(OC(F)(F)F)c(F)c1)Nc1cccnc1Oc1ccccc1C1(C(F)(F)F)CCO1 (racemic) [S23, 1-(3-fluoro-4-(trifluoromethoxy)phenyl)-3-(2-(2-(2-(trifluoromethyl)oxetan-2-yl)phenoxy)pyridin-3-yl)urea]

IC50: 145 nM
SMILES: O=C(Nc1ccc(Cl)cc1)Nc1ccc(Cl)nc1Oc1ccccc1C1(C(F)(F)F)CCO1 (racemic) [S24, 1-(6-chloro-2-(2-(2-(trifluoromethyl)oxetan-2-yl)phenoxy)pyridin-3-yl)-3-(4-chlorophenyl)urea]

IC50: 146 nM
SMILES: O=C(Nc1ccc(C(F)(F)F)cc1)Nc1cccnc1Oc1ccccc1C1(C(F)(F)F)CCO1 (racemic) [S25, 1-(2-(2-(2-(trifluoromethyl)oxetan-2-yl)phenoxy)pyridin-3-yl)-3-(4-(trifluoromethyl)phenyl)urea]

IC50: 152 nM
SMILES: O=C(Nc1ccc(OC(F)(F)F)cc1)Nc1cccnc1Oc1ccc(F)cc1C1(C(F)(F)F)CCO1 (racemic) [S26, 1-(2-(4-fluoro-2-(2-(trifluoromethyl)oxetan-2-yl)phenoxy)pyridin-3-yl)-3-(4-(trifluoromethoxy)phenyl)urea]

IC50: 153 nM
SMILES: O=C(Nc1ccc(Cl)cc1)Nc1cccnc1Oc1ccccc1C1(C(F)(F)F)CCO1 (racemic) [S27, 1-(4-chlorophenyl)-3-(2-(2-(2-(trifluoromethyl)oxetan-2-yl)phenoxy)pyridin-3-yl)urea]

IC50: 157 nM
SMILES: O=C(Nc1ccc(S(F)(F)(F)(F)F)cc1)Nc1cccnc1Oc1ccccc1C1(C(F)(F)F)CCO1 (racemic) [S28, 1-(4-(pentafluoro-λ^6-sulfaneyl)phenyl)-3-(2-(2-(2-(trifluoromethyl)oxetan-2-yl)phenoxy)pyridin-3-yl)urea]

— patent publication EP4095134A1, “POLYCYCLIC COMPOUNDS FOR THE TREATMENT OF NEUROLOGICAL INDICATIONS” (UCL Business Ltd, priority 2021, dated 2022)
